Data: article PMC6272715, “Discovery of Novel Small Molecule Anti-HCV Agents via the CypA Inhibitory Mechanism Using O-Acylation-Directed Lead Optimization” (Molecules, 2015)
Where two headings read alike, the source gives them in different places.

Tests used:
[1] = test system: JFH1-2a virus (wild type); assay: HCV virus assay, JFH1-2a wild type, Huh 7.5.1 cells; details: Hepatitis C virus
[2] = Cell proliferation (cytotoxicity) assay, WST-1; format: cell-based; details: human
Experimental: Cell Proliferation Assay: Huh 7.5.1 cells were seeded at a density of 2 × 10^4 cells per well in 96-well plates overnight. The cells were respectively incubated with serial diluted compounds for 48 h, and the viability of Huh7.5.1 cells was determined in 96-well tissue culture plates using cell proliferation reagent WST-1 (Roche, Basel, Switzerland). The absorbance (OD450 /reference OD630) was measured to detect the cytotoxicity of compounds, according to the manufacturer’s protocol of Cell Proliferation Reagent WST-1.

[3] = test system: T spleen cells; assay: Spleen cells proliferation inhibition assay (MTT), T spleen cells; format: cell-based, mouse (ICR); details: mouse spleen cells, 72 h, read-out: T Spleen Cells IC50 ± SD
Experimental: Preparation of Splenocyte Suspension: The spleen was aseptically taken from female ICR mice strains (6–8 weeks-old, 20 ± 2 g), crushed gently and separated into single cells by squeezing in 20 mL RPMI 1640 medium (Invitrogen, shanghai, China). The cells obtained were passed through […] nylon cell strainer and centrifuged at 1000 rpm∙min^−1 for 5 min at RT. Pellets were added into 10 mL erythrocytes lysis buffer (150 mM NH4Cl, 10 mM KHCO3 and 0.1 mM EDTA) followed by centrifugation to remove erythrocytes. After washing twice with complete medium (RPMI 1640 containing 100 U∙mL^−1 of penicillin, 100 U∙mL^−1 of streptomycin and 10% FBS), they were re-suspended in the complete medium and used for cell culture.
After 72 h of incubation, the cell growth was evaluated with MTT assay. The assay plates were added 10 μL of 5 mg∙mL^−1 MTT per well and incubated for 4 h. The formazan generated was solubilized with 100 μL of solution (10% SDS, 5% isobutyl alcohol, and 10 mM HCl) after incubated at 37 °C overnight. The absorption at 580 nm relative to 680 nm was measured by SpectraMax Plus 384 Reader (Molecular Devices, Shanghai, China).

[4] = in vivo; details: male, SD, rat, iv, i.v. 2 mg 25/kg; for AUC(0-inf): AUC0-∞
[5] = test system: B spleen cells; assay: Spleen cells proliferation inhibition assay (MTT), B spleen cells; format: cell-based, mouse (ICR); details: mouse spleen cells, 72 h, read-out: B Spleen Cells IC50 ± SD
Experimental: Preparation of Splenocyte Suspension: The spleen was aseptically taken from female ICR mice strains (6–8 weeks-old, 20 ± 2 g), crushed gently and separated into single cells by squeezing in 20 mL RPMI 1640 medium (Invitrogen, shanghai, China). The cells obtained were passed through 70 μM nylon cell strainer and centrifuged at 1000 rpm∙min^−1 for 5 min at RT. Pellets were added into 10 mL erythrocytes lysis buffer (150 mM NH4Cl, 10 mM KHCO3 and 0.1 mM EDTA) followed by centrifugation to remove erythrocytes. After washing twice with complete medium (RPMI 1640 containing 100 U∙mL^−1 of penicillin, 100 U∙mL^−1 of streptomycin and 10% FBS), they were re-suspended in the complete medium and used for cell culture.

[6] = test system: HCV H77-1a replicon; assay: HCV H77-1a subgenomic replicon assay; format: cell-based; details: Hepatitis C virus; Table 4; read-out: Anti-HCV Activity EC50 ± SD Replicon Assay H77-1a
[7] = test system: HCV JFH1-2a replicon; assay: HCV JFH1-2a subgenomic replicon assay (Renilla luciferase, Huh 7.5.1 replicon cells); format: cell-based; details: Hepatitis C virus
[8] = test system: HCV Con1-1b replicon; assay: HCV Con1-1b subgenomic replicon assay; format: cell-based; details: Hepatitis C virus; Table 4; read-out: Anti-HCV Activity EC50 ± SD Replicon Assay Con1-1b
[9] = rats, intravenous injection of 25 (2 mg∙kg^−1)
[10] = test system: JFH1-2a (S282T) virus; assay: HCV virus assay, mutant JFH1-2a (S282T) virus strain; format: cell-based; details: Hepatitis C virus, read-out: Anti-HCV Activity (Virus Assay) EC50 ± SD JFH1-2a (S282T)
[11] = test system: HCV subgenomic replicon; details: cited from earlier work
[12] = molecular target: CypA (Homo sapiens, UniProt P62937); assay: CypA enzyme inhibition assay (chymotrypsin-coupled PPIase assay); format: biochemical; details: mean ± SD of five independent experiments
Chain of CypA (P62937 whole entry): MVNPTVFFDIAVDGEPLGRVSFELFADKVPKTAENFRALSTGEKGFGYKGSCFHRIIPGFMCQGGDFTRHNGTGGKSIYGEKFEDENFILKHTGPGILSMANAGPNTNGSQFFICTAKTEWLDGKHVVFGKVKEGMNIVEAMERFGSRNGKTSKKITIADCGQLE
Experimental: The PPIase activity of CypA was conducted in a coupled assay with chymotrypsin using the synthetic tetrapeptide N-succinyl-Ala-Ala-Pro-Phe-p-nitroanilide (Sigma, Shanghai, China) as described in [34] with small modifications. The assay buffer (20 mM Tris-HCl, 50 mM NaCl, pH 7.8) and CypA were precooled at 4 °C and mixed with 0.4 mg∙mL^−1 chymotrypsin (20 mg∙mL^−1 in 1 mM HCl). The reaction was initiated by adding peptide substrate (2 mg∙mL^−1 in 500 mM LiCl in tetrahydrofuran (THF)). […] Absorbance readings were collected every 0.1 s and the temperature was controlled at 4 °C during the assay. The progress curves were analyzed by nonlinear least-squares fit. The inhibition assays of compounds were performed in the same manner as above-mentioned. […] of test compounds in DMSO, at various concentrations, was added to the CypA solution in the assay buffer. After being preincubated for 1 h at 4 °C, the assay was started by the addition of chymotrypsin and the substrate. To calculate the half-maximal inhibitory concentration (IC50), a percent of the remaining PPIase activity was plotted against the common logarithm of the compound concentration, and the data were fitted using the sigmoidal fitting model of Origin 7.0 software.

[13] = Huh-7.5.1, read-out: Anti-HCV Activity (Virus Assay) EC50 ± SD JFH1-2a (Wild Type)
[14] = Huh-7.5.1, read-out: Anti-HCV Activity EC50 ± SD Virus Assay JFH1-2a
[15] = SD rats, Mean ± SD (Rat 1 and 3)
[16] = Table 1, mean ± SD of three independent experiments, read-out: Anti-HCV JFH1-2a Replicon Assay EC50 ± SD
[17] = Table 4, read-out: Anti-HCV Activity EC50 ± SD Replicon Assay JFH1-2a

| Structure (SMILES) | EC50 [1, 13] [nM] | EC50 [1, 14] [nM] | CC50 at 48 h ([2]; Huh 7.5.1 cells, Table 4, 48 h) [µM] | EC50 [6] [nM] | EC50 [7, 16] [nM] | EC50 [7, 17] [nM] | EC50 [8] [nM] | EC50 [10] [nM] | IC50 [12] [nM] | also measured |
| --- | --- | --- | --- | --- | --- | --- | --- | --- | --- | --- |
| O=C(NC(=O)c1c(O)cccc1O)NC1c2ccccc2-c2ccccc21 [Compound 1] | 520 ± 160 | 670 ± 230 | > 16 | 1110 ± 330 | 920 ± 120 | 920 ± 120 | 780 ± 190 | 560 ± 130 |  | CC50 at 48 h ([2]; Huh 7.5.1 cells, Table 5): > 20 µM; IC50 [3]: 33 ± 5.72 µM; AUC(0-inf) ([4]; SD rat, Rat 1): 335 ng·h/mL; AUC(0-inf) ([4]; SD rat, Rat 3): 324 ng·h/mL; AUC(0-inf) [4, 15]: 329 ± 8.08 ng·h/mL; Cmax ([4]; SD rat, Rat 1): 698 ng/mL; Cmax ([4]; SD rat, Rat 3): 1110 ng/mL; Cmax [4, 15]: 904 ± 292 ng/mL; MRT ([4]; SD rat, Rat 1): 56.4 min; MRT ([4]; SD rat, Rat 3): 33 min; MRT [4, 15]: 45 ± 16.8 min; half-life ([4]; t1/2, SD rat, Rat 1): 110 min; half-life ([4]; t1/2, SD rat, Rat 3): 72.6 min; half-life ([4]; t1/2, SD rats, Mean ± SD (Rat 1 and 3)): 91.8 ± 27 min; IC50 [5]: 51.9 ± 8.68 µM; plasma concentration after 5 min (mean ± SD) [9]: 904.5 ± 291.9 ng/mL |
| C/C=C/C[C@@H](C)[C@@H](O)[C@H]1C(=O)N[C@@H](CC)C(=O)N(C)[C@H](C)C(=O)N(CC)[C@@H](C(C)C)C(=O)N[C@@H](C(C)C)C(=O)N(C)[C@@H](CC(C)C)C(=O)N[C@@H](C)C(=O)N[C@H](C)C(=O)N(C)[C@@H](CC(C)C)C(=O)N(C)[C@@H](CC(C)C)C(=O)N(C)[C@@H](C(C)C)C(=O)N1C [alisporivir] |  |  |  |  |  |  |  |  |  | EC50 ([11]; ref [6], read-out: EC50 (subgenomic replicon assay)): 45 nM |
| CC(C)OC(=O)[C@H](C)N[P@](=O)(OC[C@H]1O[C@@H](n2ccc(=O)[nH]c2=O)[C@](C)(F)[C@@H]1O)Oc1ccccc1 [Sofosbuvir, reference compound] | 220 ± 70 |  |  |  |  |  |  | 1140 ± 210 |  | CC50 at 48 h ([2]; Table 5): > 20 µM |
| CC(=O)Oc1cccc(O)c1C(=O)NC(=O)NC1c2ccccc2-c2ccccc21 [Compound 14, 1-(2-Acetoxy-6-hydroxybenzoyl)-3-(9H-fluoren-9-yl)-urea] |  | 710 ± 340 | > 16 | 770 ± 370 | 550 ± 30 | 550 ± 30 | 800 ± 230 |  | 2430 ± 500 |  |
| C/C=C/C[C@@H](C)[C@@H](O)[C@H]1C(=O)N[C@@H](CC)C(=O)N(C)[C@H](SCCN(C)C)C(=O)N(C)[C@@H](CC(C)(C)O)C(=O)N[C@@H](C(C)C)C(=O)N(C)[C@@H](CC(C)C)C(=O)N[C@@H](C)C(=O)N[C@H](C)C(=O)N(C)[C@@H](CC(C)C)C(=O)N(C)[C@@H](CC(C)C)C(=O)N(C)[C@@H](C(C)C)C(=O)N1C [SCY-635] |  |  |  |  |  |  |  |  |  | EC50 ([11]; ref [27], read-out: EC50 (subgenomic replicon assay, con1-derived)): 100 nM |
| O=C(NC(=O)c1c(O)cccc1OC(=O)c1ccccc1)NC1c2ccccc2-c2ccccc21 [Compound 18, 1-(2-Benzoyloxy-6-hydroxybenzoyl)-3-(9H-fluoren-9-yl)-urea] |  | 700 ± 230 | > 16 | 600 ± 350 |  | 1050 ± 10 | 1030 ± 20 |  | 1990 ± 470 | melting point: 211 to 214 °C |
